In US20230398114A1, “METHODS OF TREATING CORONAVIRUS DISEASE AND COMPOUNDS FOR SAME” (priority 2020, published 2023):
Several values for one entry are separate records, joined by “and”; a condition that tells them apart may be missing. Equal entries are not always repeated. Where two headings read alike, the source gives them in different places.

What was measured:
[1] = system: NR-53516 SARS-Related Coronavirus 2 Isolate New York—PV09158/2020; type: cell-based, SARS-CoV-2; conditions: Vero-76 cells, after 4 days
[2] = system: USA-WA1/2020 (SARS-CoV-2) virus; type: in vivo, K18-hACE2 mice; conditions: for Lung (log10 TCID50/mL), group AVG: day 6, 7 mice per group, Mebendazole 50 mg/kg po; for Lung (log10 TCID50/mL), group AVG / Lung (log10 TCID50/mL), individual animals: Imatinib 100 mg/kg, Niclosamide 200 mg/kg, alone or combined; for Lung (log10 TCID50/mL), individual animals: day 6, Mebendazole 50 mg/kg po once daily
[3] = system: Vero 76 African green monkey kidney cells; conditions: Vero 76 cells, any concentration tested up to 100 μM
[4] = system: USA-WA1/2020 (SARS-CoV-2) virus; type: in vivo, K18-hACE2 mice; conditions: for Viral content by lung RT-qPCR, Log10, group AVG / Viral content by lung RT-qPCR, Mean Result, group AVG: day 6, 7 mice per group; for Viral content by lung RT-qPCR, Log10, group AVG / Viral content by lung RT-qPCR, Mean Result, group AVG / Viral content by lung RT-qPCR, Log10 (individual animals) / Viral content by lung RT-qPCR, Mean Result (individual animals): Imatinib 100 mg/kg, Niclosamide 200 mg/kg, alone or combined; for Viral content by lung RT-qPCR, Log10 (individual animals) / Viral content by lung RT-qPCR, Mean Result (individual animals): day 6, oral gavage once daily, Mebendazole 50 mg/kg
[5] = target: Mast/stem cell growth factor receptor Kit (Homo sapiens, UniProt P10721); conditions: cited from earlier work
[6] = oral Imatinib dose of 400 mg/day; cited from earlier work
Calu-3 = Calu-3 cells, any concentration tested up to 100 μM
[7] = cited from earlier work
[8] = system: SARS-CoV-2 (USA-WA1/2020 Isolate); test: microbe, parasite or virus in culture; type: cell-based; conditions: Calu-3 cells
SARS-CoV-2 = conditions: human hepatoma cell line (Huh 7.5 cells) infected with SARS-CoV-2; cited from earlier work
human coronavirus NL63 = conditions: microtubule inhibitor, compared with actin inhibitors; cited from earlier work
[9] = day 6, Mebendazole 50 mg/kg po, alone or with Imatinib 100 mg/kg po

Mast/stem cell growth factor receptor Kit, sequence (P10721 26-976, species assumed): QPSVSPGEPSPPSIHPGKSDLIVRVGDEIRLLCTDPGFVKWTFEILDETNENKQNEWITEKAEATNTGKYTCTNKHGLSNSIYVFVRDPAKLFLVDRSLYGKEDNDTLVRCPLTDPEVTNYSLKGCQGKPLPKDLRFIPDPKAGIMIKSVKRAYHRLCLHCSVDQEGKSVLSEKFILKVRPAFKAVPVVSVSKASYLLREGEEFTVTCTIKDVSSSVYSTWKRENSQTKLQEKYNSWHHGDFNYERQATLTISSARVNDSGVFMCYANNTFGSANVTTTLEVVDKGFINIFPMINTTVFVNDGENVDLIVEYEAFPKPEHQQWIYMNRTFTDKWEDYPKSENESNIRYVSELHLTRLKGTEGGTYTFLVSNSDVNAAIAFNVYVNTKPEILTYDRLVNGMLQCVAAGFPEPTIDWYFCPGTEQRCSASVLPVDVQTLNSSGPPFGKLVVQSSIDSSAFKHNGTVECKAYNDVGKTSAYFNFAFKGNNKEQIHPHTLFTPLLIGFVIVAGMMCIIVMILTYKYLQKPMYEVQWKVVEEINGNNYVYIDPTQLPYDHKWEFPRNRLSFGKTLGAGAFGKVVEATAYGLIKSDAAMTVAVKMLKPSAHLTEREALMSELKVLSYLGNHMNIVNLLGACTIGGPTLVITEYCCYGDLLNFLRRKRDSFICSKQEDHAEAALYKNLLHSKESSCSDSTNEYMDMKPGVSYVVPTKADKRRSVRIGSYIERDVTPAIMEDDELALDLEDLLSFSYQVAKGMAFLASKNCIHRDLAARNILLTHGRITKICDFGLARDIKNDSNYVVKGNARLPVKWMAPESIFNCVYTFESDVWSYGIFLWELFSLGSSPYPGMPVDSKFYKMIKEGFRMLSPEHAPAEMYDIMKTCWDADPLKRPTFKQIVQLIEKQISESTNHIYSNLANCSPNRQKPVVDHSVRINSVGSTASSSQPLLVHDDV

With CNC(=O)c1ccccc1Sc1ccc2c(/C=C/c3ccccn3)n[nH]c2c1 [Axitinib] the “reduction in viral load (Average Virus TCID50/ml*10^6)” value (“reduction in viral load” below) ([1]; 500 nano molar) was 66.4%.

With COc1cc(Nc2c(C#N)cnc3cc(OCCCN4CCN(C)CC4)c(OC)cc23)c(Cl)cc1Cl [Bosutinib] the “reduction in viral load” value ([1]; 50 nano molar) was 47.3%.

For COc1cc2ncnc(Nc3ccc(F)c(Cl)c3)c2cc1OCCCN1CCOCC1 [Gefitinib], the “reduction in viral load” value ([1]; 50 nano molar) was 53.54%.

For Cc1ccc(NC(=O)c2ccc(CN3CCN(C)CC3)cc2)cc1Nc1nccc(-c2cccnc2)n1 [Imatinib], the “animals positively affected (lung TCID50)” value ([2]; day 6, 7 animals per group) was “a single animal”, the “Lung (log10 TCID50/mL), group AVG” value [2] was 7.4 log10 TCID50/mL and the “Lung (log10 TCID50/mL), individual animals” value [2] was 8.3 log10 TCID50/mL and 7.5 log10 TCID50/mL and 5.3 log10 TCID50/mL and 7.6 log10 TCID50/mL and 8.5 log10 TCID50/mL and 8.0 log10 TCID50/mL and 6.5 log10 TCID50/mL. The “cytotoxicity (MTT)” value [3] was “no cytotoxicity was observed”, the “Viral content by lung RT-qPCR, Log10, group AVG” value (“Viral content … Log10, group AVG” for short) ([4]; Mebendazole 50 mg/kg po) was 7.8 and the “Viral content by lung RT-qPCR, Mean Result, group AVG” value ([4]; Mebendazole 50 mg/kg po) was 9.54E+07. For the same compound, the “Viral content by lung RT-qPCR, Log10 (individual animals)” value [4] was 7.6 and 7.7 and 7.9 (2×) and 8.0 and 7.3 and 8.5, the “Viral content by lung RT-qPCR, Mean Result (individual animals)” value [4] was 3.67E+07 and 5.37E+07 and 7.80E+07 and 9.13E+07 and 2.15E+07 and 7.53E+07 and 3.12E+08 and the “reduction in viral load” value ([1]; 10 micro molar) was 29.6%. The “known to target (value in brackets, measure not stated)” value [5] was 16 nM, the “expected trough plasma concentration” value [6] was 1.7 µM and the “cytotoxicity (MTT)” value (Calu-3) was “no cytotoxicity was observed”.

With COC(=O)Nc1nc2ccc(C(=O)c3ccccc3)cc2[nH]1 [Mebendazole] the “Lung (log10 TCID50/mL), group AVG” value [2] was 5.8 log10 TCID50/mL, the “Lung (log10 TCID50/mL), individual animals” value [2] was 6.0 log10 TCID50/mL and 5.3 log10 TCID50/mL (2×) and 4.8 log10 TCID50/mL and 5.5 log10 TCID50/mL and 7.3 log10 TCID50/mL and 6.5 log10 TCID50/mL and the “Viral content … Log10, group AVG” value ([4]; Mebendazole 50 mg/kg po) was 7.8. For the same compound, the “Viral content by lung RT-qPCR, Mean Result, group AVG” value ([4]; Mebendazole 50 mg/kg po) was 4.36E+07, the “Viral content by lung RT-qPCR, Log10 (individual animals)” value [4] was 7.9 (2×) and 7.7 and 7.3 (2×) and 7.6 and 7.5 and the “Viral content by lung RT-qPCR, Mean Result (individual animals)” value [4] was 7.15E+07 and 4.97E+07 and 7.76E+07 and 1.90E+07 and 2.03E+07 and 3.73E+07 and 2.95E+07. The “Mean % Reduction of Lung Tissue RT-qPCR Titers vs. the Group Mean of Placebo Treated Mice” value [4, 9] was 44.2%, the “Percent Reduction of Lung Tissue RT-qPCR Titers (Individual Animals) vs. the Group Mean of Placebo Treated Mice” value [4, 9] was 8.45% and 36.36% and 0.64% and 75.67% and 74.01% and 52.24% and 62.23% and the “share of a single oral dose that reaches systemic circulation” value ([7]; humans, extensive first-pass metabolism) was “less than 10%”. For the same compound, the elimination half-life ([7]; in vivo) was 3 to 6 h, the “higher exposure at steady-state” value ([7]; long-term oral administration) was about 3 fold and the “share of an oral dose excreted in urine” value ([7]; oral dose) was under 2%. The “inhibition of SARS-CoV-2 (in words)” value ([8]; 2.3-5000 nM) was “Complete or near complete inhibition”, the EC50 ([8]; Severe acute respiratory syndrome coronavirus 2, 24 h pretreatment, read 48 h after inoculation, MOI 0.005, read-out: EC50, inhibition of SARS-CoV-2) was 102 nM and the “antiviral activity compared to the Vero E6 cells” value (SARS-CoV-2) was “appeared to be lower”.

In the case of O=C(Nc1ccc([N+](=O)[O-])cc1Cl)c1cc(Cl)ccc1O [Niclosamide], the “Lung (log10 TCID50/mL), group AVG” value [2] is reported as 6.1 log10 TCID50/mL, the “Lung (log10 TCID50/mL), individual animals” value [2] is reported as 6.3 log10 TCID50/mL and 5.5 log10 TCID50/mL (3×) and 8.5 log10 TCID50/mL and 6.8 log10 TCID50/mL and 4.3 log10 TCID50/mL and the “Viral content … Log10, group AVG” value ([4]; Mebendazole 50 mg/kg po) is reported as 7.7. The “Viral content by lung RT-qPCR, Mean Result, group AVG” value ([4]; Mebendazole 50 mg/kg po) was 8.46E+07, the “Viral content by lung RT-qPCR, Log10 (individual animals)” value [4] was 7.6 and 6.7 and 7.5 (2×) and 8.0 and 8.5 and 7.9 and the “Viral content by lung RT-qPCR, Mean Result (individual animals)” value [4] was 4.28E+07 and 5.54E+06 and 3.04E+07 and 9.85E+07 and 3.08E+08 and 7.72E+07 and 2.97E+07.

For COC(=O)Nc1nc2ccc(C(=O)c3cccs3)cc2[nH]1 [nocodazole], the “reduction of virus entry” value (human coronavirus NL63) is given as “did not”.
